Reference: US20150110716A1, “METHODS OF USING SPECT/CT ANALYSIS FOR STAGING CANCER” (Molecular Insight Pharmaceuticals, Inc., priority 2013, published 2015)
Values joined by “and” are separate entries in the source; they are usually repeats but may differ in a detail not shown here. Equal values may be shown once.

Tests used:
[1] = test system: primary prostate cancer within the prostate gland; experiment: Phase 2 study: SPECT/CT detection of primary prostate cancer vs histopathology; assay type: in vivo, human
Method: A phase-2 study to image men with high-risk prostate cancer scheduled for radical prostatectomy (RP) and Extended Pelvic Lymph Node Dissection (EPLND) was performed using a compound according to Formula (1), as an illustrative radioimaging agent. The primary objective of the study was to assess the safety and the ability of the Formula (1) compound to detect prostate cancer within the prostate gland. Secondary objectives include (i) assess the ability of the Formula (1) compound to detect the extent and location of prostate cancer within the prostate gland, (2) assess the ability of the Formula (1) compound to detect metastatic PCa within pelvic lymph nodes and to further detect the specific location of metastatic PCa within anatomic pelvic lymph node regions, (3) compare the performance of the Formula (1) compound as a prostate cancer imaging agent to MRI and compare the ability of the Formula (1) compound to detect the specific location of metastatic PCa within pelvic lymph nodes to the ability of MRI for detecting the specific location of metastatic PCa within pelvic lymph nodes.
A Phase-2 multi-center, multi-reader, open-label trial, to assess the performance characteristics of the Formula (1) compound as an imaging agent was measured by true-positive fraction (TPF equivalent to sensitivity) and false-positive fraction (FPF, equivalent to 1-specificity). The “truth standard” for determining true-positive cases and false-positive cases were histopathology results obtained subsequent to RP and EPLND. The performance of the Formula (1) compound as an imaging agent was compared to MRI by calculating (1) the difference in correctly identified positive cases by each imaging method that also are positive by histopathology subsequent to RP and EPLND (TPF); and (2), the difference in incorrectly identified […] cases by each imaging method, that also are […] by histopathology subsequent to RP and EPLND (FPF).
Newly-diagnosed prostate cancer patients at high-risk for metastatic disease who were scheduled for RP with EPLND were enrolled in the study. […] Subjects will receive a single intravenous dose of the Formula (1) compound (study drug) followed by both whole-body planar and SPECT/CT imaging 3-6 hours after injection. As standard of care, subjects underwent RP with EPLND surgery and histological assessment of specimens no more than 3 weeks after study drug dosing. Images of the patients were evaluated for visible uptake of the Formula (1) compound within the prostate gland and by regional assessment of nodal disease. These findings were compared against histopathology results used as the truth standard.
Efficacy analyses were conducted utilizing histopathology results subsequent to radical prostatectomy and extended pelvic lymph node dissection as the truth-standard for determination of positive and negative cases. Primary efficacy analyses estimated the ability of the compound represented by Formula (1) to detect cancer in prostate glands that were confirmed as harboring tumor based on a biopsy. The primary efficacy analysis evaluated sensitivity and specificity of the compound represented by Formula (1) using 80% power to establish the lower bound of one-sided 95% confidence intervals. All subjects who receive the Formula (1) and complete surgery will be included in the primary efficacy analysis.
Patients (pts) with biopsy confirmed adenocarcinoma of the prostate scheduled for RP with extended pelvic lymph node dissection (EPLND) at high risk for disease outside of the prostate gland were eligible. High risk patients were stage of T3c or […] or a nomogram score ≧130 (Godot′ et al., Eur. Urol., (2011), p 195-201). Within 30 days of screening, the patients required a bone scan and pelvic MRI. After enrollment, the patients received a compound represented by Formula (1) at a dose of 20 mCi±3 mCi followed by whole-body planar and SPECT/CT imaging 3 to 6 hrs later. Patients then underwent RP with EPLND within 21 days. […]

[2] = test system: high-grade prostate cancer in lobes and segments of the prostate gland; experiment: Phase 1 study: SPECT/CT T/B ratio (threshold 5.9) vs step-section histopathology; assay type: in vivo, human
Text: Protocol for Determining the Optimal Threshold Value for Discriminating Low Grade Prostate Cancer from a Higher Grade Prostate Cancer. Methods: SPECT/CT images of the pelvis including the prostate gland were obtained with a hybrid gamma camera in a 128×128 pixel matrix format with a 360 degree circular or elliptical orbit acquired into 120-128 frames. Raw images were reconstructed into 3D space with an iterative ordered subset estimation maximization algorithm corrected for attenuation and resolution recovery. […] Circular regions of interest with a diameter of approximately 20 pixels were placed on the obturator muscle adjacent to and to the left side (patient left) of the prostate gland. Counts within that region were recorded as background. Axial slices through the lower third, middle and upper third of the gland were selected to sample the apex, mid-gland and base of the prostate respectively. Radioactivity counts form the right and left side of the gland for each of the three slices were obtained for the same sized circular region of interest as background. The target to background ratio (T/B) was obtained by dividing the counts from prostate tissue by the background count. When large intense lesions originating in one side of the gland crossed the midline due to morphological changes to the anatomy, the area was scored according to the site of origin.
The suitability of a compound represented by Formula (1) to detect and discriminate between tumor tissue and normal tissue was tested in a Phase 1 study by comparing the SPECT/CT images obtained using a compound represented by Formula (1) with step-section histopathology in 8 patients (pts) undergoing radical prostatectomy. Briefly, 8 patients were administered 20mCi of the Formula (1) compound and SPECT/CT images of the pelvis were acquired 2 hours after injection. The T/B ratio was calculated for six segments of the prostate gland based on the images. Imaging results in segments and right and left lobes of the prostate were compared with Primary Gleason Grades (PGG) and total Gleason Scores (GS) recorded by a blinded pathologist. Sensitivity, specificity, accuracy for a T/B threshold of 5.9 were calculated by a receiver operator curve as explained above.

[3] = Patient/Gland Level (n = 54), interim, fraction
[4] = Patient/Gland, matched vs MRI (n = 47), fraction
[5] = interim, n=54, primary prostate cancer
[6] = Lobe Gleason Score ≧7, T/B threshold 5.9
[7] = Segment Dominant Grade ≧4, T/B threshold 5.9
[8] = Segment Gleason Score ≧7, T/B threshold 5.9

In the case of “(OC-6-33)-tricarbonyl[N^2-{[(1S)-1,3-dicarboxypropyl]amino]carbamoyl}-L-γ-glutamyl-N^6,N^6-bis[(1-{2-[bis(carboxymethyl)amino]-2-oxoethyl]-1H-imidazol-2-yl-κN^3]methyl]-L-lysine-κN^6](^99mTc)(+)chloride [Formula (1)]”, the Accuracy [1, 3] is reported as 0.94, the NPV [1, 3] is reported as 0.40 and the PPV [1, 3] is reported as 1.00. The Sensitivity [1, 3] was 0.84, the Specificity [1, 3] was 1.00 and the Accuracy [1, 4] was 0.94. The NPV [1, 4] was 0.40, the PPV [1, 4] was 1.00 and the Sensitivity [1, 4] was 0.93. The Specificity [1, 4] was 1.00, the “patients in whom presence or absence of primary prostate cancer was correctly identified” value ([1]; interim, n=54, majority of SPECT/CT readers, histopathology as truth standard) was 94% and the Sensitivity [1, 5] was 94%. The Specificity [1, 5] was 100%, the “matched patients in whom primary disease was correctly characterized” value ([1]; n=47 matched with MRI) was 94% and the “more patients correctly characterized than by the MRI reader” value ([1]; n=47 matched with MRI) was 13%. For the same substance, the “identification of presence of primary prostate cancer” value ([2]; 8 patients, 20 mCi, SPECT/CT 2 hours after injection) was “correctly identified the presence of primary prostate cancer in all patients”, the “AUC ± SE (ROC)” value ([2]; Lobe Gleason Score ≧7) was 0.969 ± 0.04 and the Accuracy [2, 6] was 93.8% and 93.8 (15/18) %. The Sensitivity [2, 6] was 92.3%, the Specificity [2, 6] was 100% and the “AUC ± SE (ROC)” value ([2]; Segment Dominant Grade ≧4) was 0.942 ± 0.04. The Accuracy [2, 7] was 89.6% and 89.6 (43/48) %, the Sensitivity [2, 7] was 90.0% and the Specificity [2, 7] was 89.3%. The “AUC ± SE (ROC)” value ([2]; Segment Gleason Score ≧7) was 0.87 ± 0.05, the Accuracy [2, 8] was 81.3% and 81.3 (39/48) % and the Sensitivity [2, 8] was 71.4%. It also gave a Specificity [2, 8] of 95%.
